Compound | melting point [°C]
ClCCCCOc1ccc(C2c3ccc(OCc4ccccc4)cc3OCC2c2ccccc2)cc1 (centres undefined) | 94 to 97.5
CCCCCCCCCCCCCCOc1ccc(CBr)cc1CBr | 62.9
CC(=NOCCO)c1ccc(-c2ccccc2)cn1 | 66 to 68
c1ccc(C2(c3ccccc3)Oc3ccc(-c4nnn[nH]4)cc3O2)cc1 | 212 to 215
O=C1NC(C(=O)O)CCCCCCCCCCC1CS (centres undefined) | 170 to 172
CCN(CC)CCNC(=O)C1N=C(c2ccccc2)c2cc(Cl)ccc2NC1=O (centres undefined) | 220
CC#CNC(=O)NC(=NC(=O)NCCCCCCCC)SC | 123 to 125
CC(=NOCCO)c1ccc(S(=O)(=O)c2ccccc2)cc1 | 87 to 88
Nc1ncnc2c1ncn2[C@@H]1C=C[C@H](CO)C1 | 121 to 124
COc1cc([N+](=O)[O-])c([N+](=O)[O-])cc1O | 172
CN(C)CCC(C(=O)O)c1cccc2ccccc12 (centres undefined) | 130 to 135
NC(=O)c1ccccc1C(=O)N(C[C@H]1CN(c2ccc(N3CCOCC3=O)cc2)C(=O)O1)C[C@H]1CN(c2ccc(N3CCOCC3=O)cc2)C(=O)O1 | 204
COc1cc(OC)c2c(=O)[nH]c(-c3ccc(O)cc3)nc2c1 | 303 to 305
COc1ccc(Nc2cccc3c2C(=O)N(C2CCC(=O)NC2=O)C3=O)c(Oc2ccccc2)c1 (centres undefined) | 142 to 144
COc1cccc(C(=C/C=C/C(=O)O)c2cccc(OC)c2)c1 | 179 to 180
CC(C)n1nc(-c2sc(NC(=O)c3cccc(C(F)(F)F)c3)nc2-c2ccccc2)ccc1=O | 237 to 238
CC(=O)N(O)Cc1ccc(C(O)C#Cc2cccs2)cc1 (centres undefined) | 125 to 126
CCOC(=O)CCC=Cc1ccc2ccccc2c1O | 63 to 64
COc1ccc2ncc(F)cc2c1 | 51 to 53
CS(=O)(=O)c1ccc(-c2[nH]nc(C(CCCO[N+](=O)[O-])=NO)c2-c2ccc(C#N)cc2)cc1 | 146 to 147

Compound | melting point [°C]
C=CC(=O)NCc1cc([N+](=O)[O-])ccc1C | 155 to 158
N#Cc1cccc(CNc2cc(C(N)=O)c([N+](=O)[O-])cc2[N+](=O)[O-])c1 | 228 to 230
CCOCCOc1cccc2oc(-c3ccccc3)cc(=O)c12 | 94 to 96
O=C(CCCCCCNC(=O)c1ccc(C(F)(C(=O)Nc2cccc3cccnc23)C(=O)Nc2cccc3cccnc23)cc1)NO | 120 to 122
CCCCCCCCC(SCCCCCC)C(=O)Nc1c(F)ccc2ncccc12 (centres undefined) | 74 to 75
CCc1nc(-c2ccc(F)cc2)c(-c2ccc(S(C)(=O)=O)cc2)s1 | 156 to 157
CN1CCN(c2nc3cccc4c3n2CCC4)CC1 | 112 to 113
Cc1cccc(C(=O)P2(=O)Oc3ccccc3-c3ccccc32)c1 (centres undefined) | 108 to 111
CCCCc1nc(C(C)(O)CC)c(C(=O)O)n1Cc1ccc(-c2ccccc2-c2nnn[nH]2)cc1 (centres undefined) | 152 to 154
COc1ccc(O)c(CNc2cccs2)c1 | 109 to 110
O=C(Oc1ccccc1)c1ccc(C(=O)Oc2ccccc2)c(C(=O)Oc2ccccc2)c1 | 156 to 158
Nc1cc2c(Nc3ccc(Cl)c(Br)c3)ncnc2cn1 | 271 to 274
CN(C)C1(Cc2ccccc2)CCC(c2[nH]c3ccccc3c2Cc2ccccc2)CC1 (centres undefined) | 140 to 143
CCCc1cc(C=CC(=O)c2ccc(O)cc2)c(OC)cc1O | 126 to 128
O=[N+]([O-])c1cc(O)c(OCCOCCO)cc1[N+](=O)[O-] | 135
COc1ccc2[nH]cc(C3=C(c4cc(OC)c(OC)c(OC)c4)C(=O)NC3=O)c2c1 | 268
Cc1nc(C[C@H]2OC[C@H](c3ccc(F)cc3)CO2)nc(C(=O)NCC(=O)O)c1O | 209
CCc1cnc(CC(C#Cc2ccccc2)c2ccc(OC)c(OC3CCCC3)c2)o1 (racemic) | 94 to 96
Cc1ccccc1-n1c(-c2sc(Nc3ccc(Cl)cc3)nc2C)nc2ccccc2c1=O | > 275
CCCCOc1nsnc1S(C)(=O)=O | 39 to 40

Compound | melting point [°C]
Cc1c(SCCCSCc2ccncc2)ccnc1CNc1cnc2ccccc2c1 | 116 to 119
COc1cc(-c2c(Cl)c(CCl)nc3sc4c(c23)CCN(Cc2ccccc2)C4)ccc1OC(C)C | 173 to 174
O=C1c2ccccc2C(=O)N1CC(=O)N(CC(=O)n1ccnc1)c1ccccc1 | 206
Clc1cc(OCCOc2ccc3ccccc3c2)cc(Cl)c1Br | 140 to 142
COc1ccccc1CN[C@H]1CCCN(CCCCCCc2ccccc2)[C@H]1c1ccccc1 (relative stereo) | 48 to 53
Nc1ccc(OCc2nc3ccccc3s2)cc1 | 87 to 89
CS(=O)c1ccc(-n2cnc3ccc(-c4nnc(SCc5cccc(C#N)c5)o4)cc32)cc1 (centres undefined) | 152 to 153
Nc1ccc(CS(=O)(=O)NCc2ccccc2)cc1 | 117 to 118
CC1OC(Oc2ccc(C(=O)c3ccc(C#N)cc3)cc2)C(O)C(O)C1O (centres undefined) | 96
Cc1nc(C=CNC(=O)c2ccccc2)n[nH]1 | 140 to 145
C=CCn1cc(-c2ccccc2)c(=O)c(-c2cccc(C(F)(F)F)c2)c1 | 107 to 109
O=C(O)c1ccc(C(c2ccccc2)c2ccc(Cl)cc2)cn1 (centres undefined) | 200 to 203
O=C(Cn1nnnc1-c1ccsc1)OCCCCCO | 39 to 42
CCC=C1SC(=O)N(CCCCOc2cccn3ccnc23)C1=O | 70 to 71
O=C(c1ccccc1)c1cc(Cl)ccc1-n1c(CN2C(=O)c3ccccc3C2=O)nnc1CN1C(=O)c2ccccc2C1=O | 250 to 251
Oc1ccc2c(c1)C(Cc1c[nH]cn1)CC2 (centres undefined) | 206 to 208
C=CCc1c(O)cc(Cl)c2c(-c3ccccc3F)noc12 | 211 to 212
O=C(NCCCSc1ccncc1)c1ccsc1 | 121 to 122
CCOC(=O)C1=C(N)NC(C)=C(C(=O)O)C1c1ccccc1-c1ccccc1 (centres undefined) | 182
CCCCCCCCCCCc1coc(NC(=O)Nc2c(C(C)C)cccc2C(C)C)n1 | 104 to 108

Further lines, results first:

melting point [°C] | Compound
> 300 | CCCN(CCC)C1Cc2cc3c(=O)[nH][nH]c(=O)c3cc2C1
219 to 221 | CNc1cc(N2CCN(C(=O)N3CCN(S(=O)(=O)c4ccc(Br)cc4)CC3)CC2)ncn1
128 to 141 | COc1cc2c(cc1Nc1ncc(Cl)c(N[C@@H]3CCCC[C@H]3NS(C)(=O)=O)n1)CCN(C(=O)CN(C)C)CC2
200 to 201 | COc1cccc2c1CCC(C(=O)O)C2C(=O)O (centres undefined)
140 to 141 | CN1C(=O)C(NC(=O)CCCCc2ccccc2)N=C(N2CCCCCC2)c2ccccc21 (centres undefined)
145 to 146 | CCN1C(=O)c2ccc(C(F)(F)F)cc2S(=O)(=O)c2ccccc21
> 300 | N#Cc1ccc(C(=O)N2CCc3[nH]c4c(cnc5cc(Cl)ccc54)c3C2)cc1
156 to 162 | CN(C)c1cccc(Oc2ccccc2N2CCN(CCCc3c[nH]c4ccccc34)CC2)c1
61 to 63 | Cn1c(C=O)cc2cccc(F)c21
87 to 88 | COc1ccc(CN2C(=O)C3CC(c4ccccc4)(C3)C2=O)cc1
125 to 127 | O=C1CCCN1C1=CC(CF)(CF)Oc2ccc(C(F)(F)F)cc21
139 to 141 | CCOC(=O)C(=CNc1coc2cc(OC)ccc2c1=O)C(=O)OCC
> 260 | CNC1c2ccccc2CC1N1CCCCC1 (centres undefined)
177 to 179 | CC(C)(C)OC(=O)N1CCC(N2C(=O)OCc3cc(Cl)ccc32)CC1
184 to 185 | COc1cc(OC)c2c(=O)cc(S)oc2c1C1CCN(C)CC1O (centres undefined)
124 to 125 | CC(=O)OCC1CC(Nc2cc(Cl)c(Cl)cc2N)C(OC(C)=O)C1OC(C)=O (centres undefined)
135 to 137 | O=C(O)C(=O)c1ccc2c(c1)Cc1ccccc1-2
155 | CC(C)(C)c1cc(C(C)(CCC(=O)O)c2ccc(O)c(C(C)(C)C)c2)ccc1O
41 to 44 | COc1ccc(-c2sc3ccccc3c2C(=O)c2ccc(OCCN3CCCCC3)cc2)cc1
222 to 225 | COC(=O)c1n[nH]c(=O)c2cc(OC)ccc12

melting point [°C] | Compound
196 to 197 | Cc1cccc(-c2ccc3c(c2)c2c(n3Cc3ccc(C(C)(C)C)cc3)COC(=O)C2=O)c1
115 to 117 | Cc1occc1S(=O)(=O)C(C)(Cc1ccc(OCCN2CCCCC2)cc1)C(=O)NO (centres undefined)
109 to 111 | CC(=O)NC[C@@H]1C[C@H]1c1cccc2nn(C)c(F)c12 (relative stereo)
114 to 115 | CC(C)(C)OC(=O)NCc1ccc2c(c1)CNC2
154 to 156 | Cc1cccc(C)c1N(CC(=O)NCCC(=O)O)C(=O)c1ccc(Cl)cc1
112 | CNC(=O)OCC(F)(F)Cn1nc(C)c(-c2ccc3c(c2)NC(=O)CO3)c1-c1ccc(F)cc1
247 to 251 | COc1cccc2c1C(=O)N1CCC[C@H]1C(=O)N2
231 to 233 | COc1ccc(NC(=O)C2CCCCn3c2nc(-c2ccncn2)cc3=O)c(OC)n1 (racemic)
248 to 250 | O=C1C2=C(NCCC2)N(c2ccccc2)C2=NCCN12
116 to 118 | CC(C)C[C@H](NC(=O)CCC1CCCCC1)C(=O)N[C@@H](Cc1ccccc1)C(=O)CSCc1ccco1
52 to 54 | CN1CCCCc2cc([N+](=O)[O-])ccc21
174 to 176 | O=C1CN(Cc2ccccc2)c2cc(Br)ccc2N1
143 to 144 | O=C(NCCCCN1CCC(c2ccccc2)CC1)c1ccc2ccccc2c1
255 to 258 | COc1cccc2c3c([nH]c12)CCNC3=O
134 to 140 | CCN1C(=O)C(C)(C)C(=O)N(C)c2cc(CCN(CCn3ccc4oc(C)cc4c3=O)Cc3cc(C)nn3C)ccc21
188 to 189 | CNC1(c2ccccc2Cl)C(=O)Nc2ccc(F)cc21 (centres undefined)
189 to 191 | CC1(C)c2cccnc2C(=O)c2ccc(Cl)cc2S1(=O)=O
180 to 182 | OC1CCC(n2cnc3cc(Cl)c(Cl)cc32)C1O (centres undefined)
220 to 222 | O=C(O)Cc1c(C(=O)c2ccc(OCc3ccccc3)cc2)[nH]c2cc(Cl)ccc12
